Laboratory results from US4053604A (priority 1975, dated 1977).
Values joined by “and” are separate entries in the source; they are usually repeats but may differ in a detail not shown here. Equal values may be shown once. “Also recorded” adds a separate entry of the source.

Assays:
[1] = tail-flick test, analgesic activity of the agent alone; assay type: in vivo, albino mice
Excerpt: (§1) In the following experiments, phenoperidine and Compound I are used in the form of their hydrochloride salt and droperidol in the form of its free base in the presence of lactic acid for adjustment to pH to 3.4. Results are expressed on the basis of the form of the drug employed (i.e., free base or hydrochloride salt).
(§2) Results of such tests using albino mice are illustrated by tables 1,2 and 3 in which the neuroleptic agent, droperidol, is included for comparative purposes.
*The dose which increased analgesia by 50% when tested 15 minutes after […]

[2] = tail-flick test, potentiation of the analgesic activity of phenoperidine; assay type: in vivo, albino mice
Excerpt: as §1, §2
Potentiation of the Analgesic Activity (ED50) of Phenoperidine,
i.e. 0.5 mg/kg, by varying Doses of Neuroleptic Agents.
*PD50 refers to the dose of the neuroleptic which increased the
analgesic activity (ED50) of phenoperidine by 50%.
Modified Analgesic Activity of Phenoperidine in
the Presence of the Neuroleptic PD50. -
*ED50 refers to the analgesic activity of phenoperidine after
pretreatment with a fixed dose (PD50) of the neuroleptic agents.

[3] = induction time of rats exposed to halothane anesthesia (loss of righting reflex); assay type: in vivo, male albino rats (Sprague-Dawley)
Protocol: The effects of Compound I on halothane-induced anesthesia were assessed using 20 rats for each dose or time interval determination. The experiments were performed on male albino rats (Sprague-Dawley) weighing from 180-220 g. A schematic representation of the apparatus used is illustrated in FIG. 1. The apparatus consists of a rectangular box made of transparent plastic (115 cm long × 28 cm high × 28 cm wide) which is divided into 4 equal chambers by perforated walls. The box rotates around a hollow axis through which gases can be delivered at several proportions from cylinders, through their respective flowmeters. An in-line halothane vaporizer is placed just before the gases reach the chambers. There is an air-tight door to every chamber through which two animals, one treated and one control, are introduced. The gases are delivered at one end of the box and suction is applied to the other end to take up the gases after flowing through the chambers. An in-line water manometer monitors the resulting pressure. This pressure is kept at 0-5 mm H2 O to make certain the gases in the anesthetic chambers remain at atmospheric pressure. The mixture of gases is delivered at a rate of 15 l/min. The inhalation anesthetic gases are delivered for ten minutes prior to the introduction of the animals into the chambers to assure an even distribution in the four chambers. The chambers rotate at four rev/min forcing the animals to tumble and allowing the experimenter to accurately time the loss and recovery of the righting reflex. Induction times are recorded as the time interval elapsed between the beginning of exposure of the animals to the gases and the moment in which they lose their righting reflex.
Groups of control animals (four at a time) were subjected to halothane concentrations ranging from 0.5 to 2.5% in a mixture of 95% O2 -5% CO2, and the induction times thus obtained were used to calculate concentration-reponse curves. Since a certain time elapsed between putting the first and the last rat into their respective chambers, each animal was timed separately with a stopwatch. […] This intermediate concentration of halothane was then used to study the effects of increasing doses of the test compound on the induction times and anesthesia times.
The animals were pretreated by administering the test compounds in dosages ranging from 10 to 500 μg/kg, i.v., at 5, 30, 60, 120, 240 and 360 minutes prior to their exposure to halothane. As soon as all animals lost their righting reflex, the O2 -halothane flow was discontinued and replaced by an equal flow of air. The animals were allowed to remain in the rotating chambers until they regained their righting reflex. Anesthesia times were determined as the interval between the time required to lose and the time to regain the righting reflex. Air flushing of the anesthetic chambers was performed after each determination and the entire procedure repeated with another group of animals for the determination of the effect of a new dose or concentration.
Drugs used in this study include: droperidol, phenoperidine hydrochloride, halothane and Compound I in the form of its hydrochloride salt. Phenoperidine hydrochloride and Compound I (hydrochloride) were dissolved separately in a warm solution of 0.9% sodium chloride. Droperidol was suspended in saline with the aid of a drop ot Tween 80 (Tween 80 is a registered trademark for a complex mixture of polyoxyethylene ethers of mixed partial oleic esters of sorbitol anhydride). Dosages are expressed in this study as the salt form of the compound where applicable. When the experimental protocol called for the concomitant administration of two drugs, these were mixed in the syringe and administered intravenously. The drugs were injected in a volume of 0.1 ml/100 g body weight.
The statistical analysis of the data was performed using Student's […]. […]

[4] = behavioral changes and side effects in cebus monkeys; assay type: in vivo; conditions: for Behavioral Changes / Side Effects / Duration / Onset / time of onset of side effect (Extrapyramidal): individual monkey
[5] = onset, duration of activity and cardiovascular effect (general statement); assay type: in vivo
[6] = in words; cited from earlier work

## CC(C)[C@@]1(O)CCN2C[C@@H]3c4ccccc4CCc4cccc(c43)[C@H]2C1 [Compound 1, (+)(4a,13b-trans)-(3-hydroxy,13b-trans)-3-isopropyl-2,- 3,4,4a,8,9,13b,14-octahydro-lH-benzo[6,7]cyclohepta[1,2,3-de]pyrido[2,1-a]isoquinolin-3-ol]
[1]; Mus musculus, ip, 0.25 h, i.p., dose which increased analgesia by 50% when tested 15 minutes after drug administration
  ED50: > 35 mg/kg
[1]; in words, listed as Compound I
  analgesic activity when given alone: only a negligible amount of analgesic activity; also recorded: no analgesic activity could be demonstrated
[2]; in words
  relative potentiating activity, Compound I versus droperidol: equiactive
[2]; in words, listed as Compound I
  enhancement of analgesic activity of phenoperidine by concomitant administration: well defined potentiating effect on analgesic agents; also recorded: significantly enhanced
[2]; mouse, in vivo, ip
  PD50 of Neuroleptic Agent (dose which increased the analgesic activity (ED50) of phenoperidine by 50%): 0.56 ± 0.06 mg/kg
[3]; 10 μg/kg i.v., 5 min before 0.75% halothane
  Induction time, treated: 6.66 min
[3]; 10 μg/kg i.v., 5 min before 1.0% halothane
  Induction time, treated: 2.67 min
[3]; 10 μg/kg i.v., 5 min before 1.5% halothane
  Induction time, treated: 1.32 min
[3]; 10 μg/kg i.v., 5 min before 2.0% halothane
  Induction time, treated: 0.72 min
[3]; 10 μg/kg i.v., 5 min before 2.5% halothane
  Induction time, treated: 0.57 min
[3]; 25 μg/kg i.v., 5 min before 0.75% halothane
  Induction time, treated: 6.30 min
[3]; 25 μg/kg i.v., 5 min before 1.0% halothane
  Induction time, treated: 1.86 min
[3]; 25 μg/kg i.v., 5 min before 1.5% halothane
  Induction time, treated: 1.02 min
[3]; 25 μg/kg i.v., 5 min before 2.0% halothane
  Induction time, treated: 0.71 min
[3]; 25 μg/kg i.v., 5 min before 2.5% halothane
  Induction time, treated: 0.58 min
[3]; 50 μg/kg i.v., 5 min before 0.75% halothane
  Induction time, treated: 5.77 min
[3]; 50 μg/kg i.v., 5 min before 1.0% halothane
  Induction time, treated: 1.62 min
[3]; 50 μg/kg i.v., 5 min before 1.5% halothane
  Induction time, treated: 1.03 min
[3]; 50 μg/kg i.v., 5 min before 2.0% halothane
  Induction time, treated: 0.75 min
[3]; 50 μg/kg i.v., 5 min before 2.5% halothane
  Induction time, treated: 0.57 min
[3]; 100 μg/kg i.v., 5 min before 0.75% halothane
  Induction time, treated: 4.05 min
[3]; 100 μg/kg i.v., 5 min before 1.0% halothane
  Induction time, treated: 1.37 min
[3]; 100 μg/kg i.v., 5 min before 1.5% halothane
  Induction time, treated: 1.13 min
[3]; 100 μg/kg i.v., 5 min before 2.0% halothane
  Induction time, treated: 0.69 min
[3]; 100 μg/kg i.v., 5 min before 2.5% halothane
  Induction time, treated: 0.54 min
[3]; 200 μg/kg i.v., 5 min before 0.75% halothane
  Induction time, treated: 3.48 min
[3]; 200 μg/kg i.v., 5 min before 1.0% halothane
  Induction time, treated: 1.31 min
[3]; 200 μg/kg i.v., 5 min before 1.5% halothane
  Induction time, treated: 1.03 min
[3]; 200 μg/kg i.v., 5 min before 2.0% halothane
  Induction time, treated: 0.64 min
[3]; 200 μg/kg i.v., 5 min before 2.5% halothane
  Induction time, treated: 0.57 min
[3]; 200 μg/kg, i.v., 1% halothane
  reduction of induction time: approximately 50%
[3]; 250 μg/kg i.v., 5 min before 0.75% halothane
  Induction time, treated: 3.72 min
[3]; 250 μg/kg i.v., 5 min before 1.0% halothane
  Induction time, treated: 1.67 min
[3]; 250 μg/kg i.v., 5 min before 1.5% halothane
  Induction time, treated: 0.91 min
[3]; 250 μg/kg i.v., 5 min before 2.0% halothane
  Induction time, treated: 0.67 min
[3]; 250 μg/kg i.v., 5 min before 2.5% halothane
  Induction time, treated: 0.60 min
[3]; Compound 1 (hydrochloride) alone, i.v., 5 min before 1% halothane (FIG. 2)
  maximum decrease in induction time: 45%
[3]; administered prior to anesthetic treatment, in words, listed as Compound I
  effect on induction time for the anesthetic: decreased considerably; also recorded: substantially reduced
[3]; plus 25 μg/kg, i.v., phenoperidine hydrochloride, 1% halothane (FIG. 2)
  decrease in induction time, with phenoperidine: about 65%
[4]; Compound 1, 5 μg/kg i.v.
  Behavioral Changes: None
  Side Effects: None
[4]; Compound 1, 10 μg/kg i.v.
  Behavioral Changes: Passive; also recorded: Huddle
  Duration: 3 h and > 4 h and 2 h
  Onset: 30 min and 20 min and 15 min and 60 min
  Side Effects: None
[4]; Compound 1, 20 μg/kg i.v.
  Behavioral Changes: Passive-Huddle
  Duration: 4 h and > 5 h and 3 h
  Onset: 20 min and 15 min
  Side Effects: None
[4]; Compound 1, 50 μg/kg i.v.
  Behavioral Changes: Huddle
  Duration: > 4 h
  Onset: 20 min and 10 min
  Side Effects: Extrapyramidal and None
  time of onset of side effect (Extrapyramidal): 30 min and 40 min
[4]; Compound 1, 100 μg/kg i.v.
  Behavioral Changes: Huddle
  Duration: > 24 h
  Onset: 10 min and 5 min
  Side Effects: Extrapyramidal
  time of onset of side effect (Extrapyramidal): 15 min and 10 min
[4]; i.v.
  doses at which signs of excitomotor agitation (extrapyramidal excitation) were observed: 50 to 100 µg/kg
[4]; in words
  eliciting behavioral changes: effective in eliciting behavioral changes at very small doses
[5]; alone or in combination with a suitable analgesic agent, in words
  effect on the cardiovascular system: little or no effect on the cardiovascular system
[5]; in words
  onset of action: quick onset of action
[5]; relatively short duration
  duration of activity: up to four
[6]
  neuroleptic potency: potent neuroleptic agent
